Test [1] has as its system human leukemia cells (HL-60 cells). The test is described as follows: HL-60 cell differentiation (NBT reduction). Type of test: cell-based. The settings on record: NBT assay; for potency in promoting the differentiation of leukemia cells: HL-60 cells to monocytes, FIG. 3; for percent of HL-60 cells induced to differentiate: concentration 1×10^−7 M. As for the experimental part: FIG. 3—EL-60 Cell Differentiation
The differentiation of HL-60 promyelocytic into monocytes was determined as described by Ostrem et al (J. Biol. Chem. 262, 14164-14171, 1987).
Differentiation activity was assessed by a standard differentiation assay, abbreviated as NBT reduction (nitroblue tetrazolium reduction). The assay was conducted according to known procedures, as given, for example, by DeLuca et al U.S. Pat. No. 4,717,721 and Ostrem et al, J. Biol. Chem. 262, 14164, 1987. For the assay, the differentiation activity of the test compounds is expressed in terms of the percent of HL-60 cells having differentiated to normal cells in response to a given concentration of test compound.

The test system of test [2] is bone calcium mobilization. The test is described as follows: Bone calcium mobilization (serum calcium). In kind it is in vivo, Sprague-Dawley rats. Particulars: rats, four consecutive ip doses, FIG. 6. As for the experimental part: (§1) FIGS. 5 and 6—Intestinal Calcium Transport and Bone Calcium Mobilization
(§2) Male, weanling Sprague-Dawley rats were placed on Diet 11 (0.47% Ca) diet+AEK for one week followed by Diet 11 (0.02% Ca)+AEK for 3 weeks. The rats were then switched to a diet containing 0.47% Ca for one week followed by two weeks on a diet containing 0.02% Ca. Dose administration began during the last week on 0.02% calcium diet. Four consecutive ip doses-were given approximately 24 hours apart. Twenty-four hours after the last dose, blood was collected from the severed neck and the concentration of serum calcium determined as a measure of bone calcium mobilization. The first 10 cm of the intestine was also collected for intestinal calcium transport analysis using the everted gut sac method.

Test [3] has as its target T1, recombinantly produced rat receptor (1α,25-dihydroxyvitamin D receptor) (Rattus norvegicus, UniProt P13053).
T1 construct: made in house
T1 sequence (P13053 1-423): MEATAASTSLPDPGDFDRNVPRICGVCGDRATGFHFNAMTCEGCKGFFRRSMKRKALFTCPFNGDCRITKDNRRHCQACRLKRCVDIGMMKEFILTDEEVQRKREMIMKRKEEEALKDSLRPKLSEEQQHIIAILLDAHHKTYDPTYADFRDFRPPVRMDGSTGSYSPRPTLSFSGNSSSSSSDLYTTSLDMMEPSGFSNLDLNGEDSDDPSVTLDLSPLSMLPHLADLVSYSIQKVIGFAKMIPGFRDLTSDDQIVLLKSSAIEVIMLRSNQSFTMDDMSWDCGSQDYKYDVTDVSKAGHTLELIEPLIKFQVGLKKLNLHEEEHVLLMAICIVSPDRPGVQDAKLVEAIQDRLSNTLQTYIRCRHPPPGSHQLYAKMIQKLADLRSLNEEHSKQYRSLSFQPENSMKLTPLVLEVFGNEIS
The test is described as follows: Competitive VDR binding. The settings on record: FIGS. 1 and 2. As for the experimental part: FIGS. 1 and 2—Competitive VDR Binding
Competitive binding of the analogs to the porcine intestinal receptor was carried out by the method described by Dame et al (Biochemistry 25, 4523-4534, 1986), except the recombinantly produced rat receptor was used as the receptor (see Vanhooke et al., Biochemistry, in press, 2004).

For test [4], the system named is 24-hydroxylase (24OHase) gene promoter. The test is described as follows: Transcription activation, 24-hydroxylase promoter luciferase reporter in ROS 17/2.8 (bone) cells. Type of test: cell-based. The settings on record: ROS 17/2.8 cells, luciferase 16 hours after dosing, FIG. 4. As for the experimental part: FIG. 4—Transcription Activation
Transcriptional activity was measured in ROS 17/2.8 (bone) cells that were stably transfected with a 24-hydroxylase (24OHase) gene promoter upstream of a luciferase reporter gene (Arbour et al., 1998). Cells were given a range of doses. Sixteen hours after dosing the cells were harvested and luciferase activities were measured using a luminometer.
“RLU” in FIG. 4 refers to relative luciferase units.

For test [5], the system named is intestinal calcium transport. The test is described as follows: Intestinal calcium transport, everted gut sac method. Particulars: rats, four consecutive ip doses, FIG. 5. In kind it is in vivo, Sprague-Dawley rats. As for the experimental part: as §1, §2

Consider “2-[(3′-methoxymethoxy)propylidene]-19-nor-1α,25-dihydroxyvitamin D3 [F-Wit]”, for which, in test [1], the “potency in promoting the differentiation of leukemia cells” value (from here on “potency in promoting the differentiation”) is “as potent as 1α,25-dihydroxyvitamin D3 and 2MD”; the “percent of HL-60 cells induced to differentiate” value (“percent … to differentiate” for short) was “the same degree of differentiation”. In test [2], the “ability to mobilize calcium from bone” value was “significant ability to mobilize calcium from bone” and the “bone calcium mobilization compared with 2MD” value is “less active in this regard than 2MD”. Further, the “activity in binding to the 1α,25-hydroxyvitamin D3 rat receptor” value (shortened to “activity in binding”) in test [3] is given as “very active”. In addition, the “transcriptional activity in bone cells” value in test [4] is recorded as “significant transcriptional activity”. Further, in test [5], the “intestinal calcium transport activity” value is listed as “relatively high intestinal calcium transport activity” and the “intestinal calcium transport activity compared with 2MD” value is recorded as “more active than 2M”.

As to `C=C1/C(=C\C=C2/CCC[C@]3(C)[C@@H]([C@H](C)CCCC(C)(C)O)CC[C@@H]23)C[C@@H](O)C[C@@H]1O` [1α,25-dihydroxyvitamin D3, reference compound], the “percent … to differentiate” value in test [1] is listed as around 90%.

With “(20R)-1α,25-dihydroxy-2-[3′-hydroxypropylidene]-19-norvitamin D3 [1AGR]”, in test [1], the “potency in promoting the differentiation” value is “as potent as 1α,25-dihydroxyvitamin D3 and 2MD”; the “percent … to differentiate” value is on record as “the same degree of differentiation”. In test [2], the “ability to mobilize calcium from bone” value was “significant ability to mobilize calcium from bone” and the “bone calcium mobilization compared with 2MD” value is on record as “less active in this regard than 2MD”. Besides, the “activity in binding” value in test [3] is “very active”. Also, the “transcriptional activity in bone cells” value in test [4] was “significant transcriptional activity”. In test [5], the “intestinal calcium transport activity” value is “relatively high intestinal calcium transport activity” and the “intestinal calcium transport activity compared with 2MD” value is “more active than 2M”.

“(20S)-1α,25-dihydroxy-2-[3′-hydroxypropylidene]-19-norvitamin D3 [1AGS]”: in test [1], the “potency in promoting the differentiation” value is “as potent as 1α,25-dihydroxyvitamin D3 and 2MD”; the “percent … to differentiate” value is listed as “the same degree of differentiation”. In test [2], the “ability to mobilize calcium from bone” value was “significant ability to mobilize calcium from bone” and the “bone calcium mobilization compared with 2MD” value is on record as “less active in this regard than 2MD”. Also, in test [3], the “activity in binding” value was “very active”. In test [4], the “transcriptional activity in bone cells” value is “significant transcriptional activity”. Moreover, in test [5], the “intestinal calcium transport activity” value is listed as “relatively high intestinal calcium transport activity” and the “intestinal calcium transport activity compared with 2MD” value is reported as “more active than 2M”.
